The text below walks through data of US20070270432A1, “Novel Method” (priority 2002, published 2007).

Test [1] deals with retention of a spacial memory task. Conditions: rat, 10 mg/kg p.o.; cited from earlier work.
Test [2] concerns NCAM PSA-immunoreactive neurons, dentate granule cell layer/hilar border. Briefly: NCAM PSA expression in hippocampal dentate gyrus after chronic administration. The following applies: for PSA immunopositive cell frequency: hippocampal dentate, 40 days by gavage. Type of test: in vivo, rat. The protocol:
(§1) Experimentally naïve postnatal day 80 (at the time of NCAM-PSA assessment) male Wistar rats were employed in all studies. All animals were housed singly and maintained at 22±2° C. on a standard 12 h-light/dark cycle with food and water available ad libitum. Animals were introduced to the experimental holding rooms at least 3 days prior to the commencement of any study.
(§2) Freshly dissected whole rat brain was carefully coated in optimum cutting temperature (OCT) compound and lowered into a Cryoprep freezing apparatus containing dry-ice-cooled n-hexane. The function of the OCT compound and n-hexane was to provide an even freezing of the tissue, thus avoiding freezing artefacts. Horizontal sections for all studies were cut semi-automatically or automatically on a Microm Series 500 cryostat. Fresh, frozen brain sections (12 μm) were cut at −15° C., while cryoprotected. All sections were prepared on the day of the experiment and were not pre-cut and stored frozen.
(§3) Horizontal cryosections were cut from the frozen tissue at various levels with reference to Bregma (see above), these were thaw-mounted onto glass slides, which were coated with poly-1-lysine diluted 1:1 in dH2O, and immersion fixed for 30 minutes with 70% ethanol. The sections were then washed twice for 10 minutes each in 0.1M phosphate buffered saline (PBS) and incubated for 20 hours in a humidified chamber at room temperature with the primary antibody diluted 1:500 in PBS containing 1% bovin serum albumin (w/v) and 1% normal goat serum (v/v) to reduce non-specific staining. The humidified chamber prevented the sections from evaporating. The primary antibody was a monoclonal raised against PSA, which was provided by Professor G, Rougon (CNRS UMR 6545, 13288 Marseille, France). On completion of the primary antibody incubation, the sections were washed twice for ten minutes each in PBS and incubated at room temperature for 3 hours in the humidified chamber with the secondary antibody, at a dilution factor of 1:100, again in PBS containing 1% BSA and 1% NGS. The secondary antibody was a goat anti-mouse IgM conjugated to fluorescein (FITC). Following the second incubation, the sections ware again washed twice for ten minutes each in PBS, mounted in the fluorescence enhancing medium Citifluor® and observed for fluorescence with a Leitz DM RB fluorescent microscope.
(§4) Quantitative image analysis was performed using the Leica Quantimet 500®, a P.C.-based software package, which was connected to the fluorescence microscope with a high sensitivity CCD video camera. Each microscope lens was calibrated for length and area measurements using a 1 mm graticule. The total number of NCAM PSA-immunoreactive neurons on the right dentate granule cell layer/hilar border were counted in 7 alternate 12 μm sections commencing −5.6 mm from Bregma (Paxinos and Watson, 1986), to preclude double counting of the 5-10 μm perikarya. Cell identification was aided by the use of the nuclear counter-stain propidium iodide (40 ng/ml PBS; 60 sec). The number of cells was then divided by the total area of the dentate granule cell layer and multiplied by the average granule cell layer area for a p80 rat, which is 0.15±0.01 mm^2 at this level. This was done for each section and a mean±SEM was calculated for each brain with the results expressed as PSA-positive cells per unit area. […] Cell identification was again aided by the use of the nuclear counter-stain propidium iodide (40 ng/ml PBS; 60 sec) with the use of alternate sections eliminating the possibility of double counting. Cell counts were divided by the length of the cortex and multiplied by the average length of the cortex, which was taken to be 10 mm. This was completed for each section and a mean±SEM was calculated for each brain with the results expressed as PSA-positive cells per unit length.
NCAM PSA-positive cell numbers were obtained from each animal group.

Test [3] has the same test system. Kind of test: NCAM PSA expression in hippocampal dentate gyrus with water maze training. Conditions: for PSA immunopositive cell frequency: Example 2. The format is in vivo, rat. As for the experimental part:
as §1, §2, §3, §4
In this protocol animals were introduced to the training environment 5 days prior to training, and individually housed according to standard conditions. […]

For `COc1ccc(NS(=O)(=O)c2sc3ccc(Cl)cc3c2C)cc1N1CCNCC1.Cl` [SB271046, 5-Chloro-3-methylbenzo[b]thiophene-2-sulfonic acid (4-methoxy-3-piperazin-1-ylphenyl)amide hydrochloride], the “retention of a spacial memory task” value in test [1] is reported as “significant improvements”. Besides, the “PSA immunopositive cell frequency” value in test [2] (Example 1, 3 mg/kg) is given as 70.3 ± 3.9 PSA-positive cells per unit area; in test [2] (Example 1, 10 mg/kg), 82.4 ± 1.7 PSA-positive cells per unit area; in test [2] (Example 1, 20 mg/kg), 85.8 ± 8.4 PSA-positive cells per unit area; in test [2] (Example 3, 20 mg/kg) it was 78.3 ± 3.4 PSA-positive cells per unit area; in test [3] (acute 20 mg/kg by gavage 30 min before water maze training, 12 h post-training) it was 96.0 ± 5.5 PSA-positive cells per unit area; in test [3] (acute 20 mg/kg by gavage, untrained), 64.2 ± 4.3 PSA-positive cells per unit area. Besides, the “PSA immunopositive cell frequency” value in test [3] (chronic 20 mg/kg, 40 days by gavage, 12 h post water maze training) was 109.8 ± 1.8 PSA-positive cells per unit area; in test [3] (chronic 20 mg/kg, 40 days by gavage, untrained) it was 85.8 ± 1.3 PSA-positive cells per unit area. Moreover, the “frequency of polysialylated neurons in repeat group compared with Example 1” value in test [2] (Example 3 repeat, 20 mg/kg chronic) is listed as “no difference”. Besides, in test [2] (chronic administration, versus vehicle-treated control), the “effect on frequency of polysialylated neurons in the subventricular zone of the rat hippocampal dentate gyrus” value is given as “significantly increase”. Moreover, the “effect on frequency of polysialylated neurons at 12 h following water maze training” value in test [3] (acute 20 mg/kg, versus untrained drug-treated and trained drug-naive animals) was “significantly increase”.
